The target in data set [1] is T1, human PDE10A enzyme (Homo sapiens, UniProt Q9Y233).
T1 construct: Human PDE10A full-length gene was transfected into Sf9 or COS-7 cells; His-tag; made in house; host or cells: Sf9 or COS-7 cells
In words: PDE10A enzyme activity inhibition test (Scintillation Proximity Assay, [3H]cGMP substrate). The data set is classed as biochemical. The note with it: control without compound = 0%, without compound and enzyme = 100%; for inhibition at 0.1 µM: compound 0.1 μM, read-out: Inhibitory rate (%) (0.1 μM); for inhibition at 10 µM: compound 10 μM, read-out: Inhibitory rate (%) (10 μM). The protocol:
Human PDE10A full-length gene was transfected into Sf9 or COS-7 cells. The cells were disrupted and centrifuged, and human PDE10A enzyme was obtained from the residue. The enzyme extracted from Sf9 cells was partially purified using His-tag affinity column. The enzyme was stored at −70° C. until use.
The PDE 10A enzyme activity was measured using an Scintillation Proximity Assay (SPA, GE Healthcare). To measure the inhibitory activity of the test compound, 10 μL of serially diluted test compound was reacted with 20 μL of PDE 10A enzyme in an assay buffer (50 mM HEPES-NaOH, 8.3 mM MgCl2, 1.7 mM EGTA, 0.1% BSA (pH 7.4)) for 30 min at room temperature. The final concentration of DMSO in the reaction mixture was 1%.
The compounds were evaluated in duplicate in 96-well half-area plates (Corning). To start the reaction, 10 μL of substrate [3H] cGMP (25 or 50 nM; GE Healthcare and PerkinElmer, respectively) was added thereto to the total volume of 40 μL. After 60 min of reaction at room temperature, yttrium SPA beads containing zinc sulphate were added (6 mg/mL, 20 μL) to terminate the reaction. After standing still for 1 hr, the measurement was performed using a scintillation counter (PerkinElmer) and the inhibition rate was calculated. As for the inhibitory rate, the value without addition of the compound (control) was 0%, and that without addition of the compound and enzyme was 100%.
Background: SPA uses beads or plates that emit light when radiolabelled molecules are held near them.

Data set [2] deals with hyperlocomotion induced by MK-801. Description: Suppressive action on hyperlocomotion induced by MK-801. The data set is classed as in vivo, rat. The note with it: male SD rats; 1 mg/kg p.o., 60 min before MK-801 (0.3 mg/kg, s.c.); vs vehicle, Student's t-test P<0.05; FIG. 1. The source says: Male SD rats were purchased from Charles River Laboratories Japan, Inc. (Kanagawa, Japan), and used for the experiment at the age of 8 weeks. After arrival at the vivarium, the animals were acclimated for at least 1 week. The animals were reared under a 12:12 hr light/dark cycle in a temperature- and humidity-controlled laboratory and allowed to freely take food and water.
Example 14 was suspended in 0.5% (w/v) aqueous methylcellulose solution and orally administered (p.o.). (+)-MK-801 hydrogen maleate (MK-801, Sigma-Aldrich, St Louis, State of Missouri) was dissolved in saline, and subcutaneously administered (s.c.). All drugs were dosed in a volume of 2 mL/kg body weight for rats.
Hyperlocomotion induced by psychostimulants (e.g., amphetamine, cocaine, methamphetamine, MK-801 and phencyclidine) in rodents is widely used as an animal model of psychosis (Psychopharmacology 1999, vol. 145: 237-250). Using rats, a suppressive action of a compound (Example 14) on the hyperlocomotion induced by MK-801 was tested. Until the start of the test, male SD rats (8-week-old) were acclimated in a locomotor chamber with an infrared sensor set on the upper side (Muromachi Kikai Co., Ltd., Tokyo, Japan). […] Hyperlocomotion was measured every 1 min, and the cumulative count for 120 min from the administration of MK-801 was calculated for each treatment group. […]

T1 sequence (Q9Y233 267-1055): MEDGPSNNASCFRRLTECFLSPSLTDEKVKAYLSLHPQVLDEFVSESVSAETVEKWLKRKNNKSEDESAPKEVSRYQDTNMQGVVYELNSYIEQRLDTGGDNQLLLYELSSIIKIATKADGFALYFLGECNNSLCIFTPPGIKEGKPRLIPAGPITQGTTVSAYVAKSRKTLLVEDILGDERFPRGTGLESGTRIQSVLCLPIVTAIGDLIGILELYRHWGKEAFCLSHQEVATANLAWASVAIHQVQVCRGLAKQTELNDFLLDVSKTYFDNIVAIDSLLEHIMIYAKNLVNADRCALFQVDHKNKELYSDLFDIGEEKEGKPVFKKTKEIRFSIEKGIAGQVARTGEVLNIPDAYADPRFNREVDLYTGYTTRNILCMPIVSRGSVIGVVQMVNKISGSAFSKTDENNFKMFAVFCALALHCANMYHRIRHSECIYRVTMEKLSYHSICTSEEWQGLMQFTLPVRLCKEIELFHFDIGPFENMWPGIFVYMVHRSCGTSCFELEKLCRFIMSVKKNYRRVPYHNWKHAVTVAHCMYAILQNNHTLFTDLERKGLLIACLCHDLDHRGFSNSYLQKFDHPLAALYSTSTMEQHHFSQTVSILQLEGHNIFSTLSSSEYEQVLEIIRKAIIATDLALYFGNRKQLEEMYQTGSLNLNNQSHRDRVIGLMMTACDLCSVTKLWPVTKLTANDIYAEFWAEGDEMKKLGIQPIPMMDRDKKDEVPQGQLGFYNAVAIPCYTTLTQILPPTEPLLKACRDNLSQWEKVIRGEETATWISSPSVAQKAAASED

For the compound `Cc1cn2cccc(-c3ccc(Oc4nc5ccccc5[nH]4)cc3)c2n1` [Example 1, 2-[4-(2-Methylimidazo[1,2-a]pyridin-8-yl)phenoxy]-1H-benzimidazole], in data set [1], the inhibition at 0.1 µM is 63% and the inhibition at 10 µM is 98%.
On the same counts, the results for `c1ccc2[nH]c(Oc3ccc(-c4cccn5ccnc45)cc3)nc2c1` [Example 2, 2-[4-(Imidazo[1,2-a]pyridin-8-yl)phenoxy]-1H-benzimidazole] are 62% and 98%.
The matching figures for `CCn1nc2cccnc2c1-c1ccc(Oc2nc3ccccc3[nH]2)cc1` [Example 3, 3-[4-(1H-benzimidazol-2-yloxy)phenyl]-2-ethyl-2H-pyrazolo[4,3-b]pyridine]: 91% and 102%.
On the same counts, the results for `CCn1nc2cccnc2c1-c1ccc(Oc2nc3ccccc3n2C)cc1` [Example 4, 2-Ethyl-3-{4-[(1-methyl-1H-benzimidazol-2-yl)oxy]phenyl}-2H-pyrazolo[4,3-b]pyridine] are 93% and 102%.
On to `c1ccc2[nH]c(Oc3ccc(C4CCCn5ccnc54)cc3)nc2c1` (centres unmarked) [Example 5, 2-[4-(5,6,7,8-Tetrahydroimidazo[1,2-a]pyridin-8-yl)phenoxy]-1H-benzimidazole], for which, in data set [1], the inhibition at 0.1 µM was found to be 2% and the inhibition at 10 µM is 51%.
Turning to `COc1nn(-c2ccc(Oc3nc4ccccc4[nH]3)cc2)c2ncccc12` [Example 6, 1-[4-(1H-benzimidazol-2-yloxy)phenyl]-3-methoxy-1H-pyrazolo[3,4-b]pyridine], in data set [1], the inhibition at 0.1 µM turned out to be 99%.
Same read-out and setting: for `Cn1c(=O)c2cccnc2n1-c1ccc(Oc2nc3ccccc3[nH]2)cc1` [Example 7, 1-[4-(1H-benzimidazol-2-yloxy)phenyl]-2-methyl-1,2-dihydro-3H-pyrazolo[3,4-b]pyridin-3-one] the value was 59%.
Take `CCc1nn(-c2ccc(Oc3nc4ccccc4n3C)cc2)c2ncccc12` [Example 8, 3-Ethyl-1-{4-[(1-methyl-1H-benzimidazol-2-yl)oxy]phenyl}-1H-pyrazolo[3,4-b]pyridine]: in data set [1], the inhibition at 0.1 µM amounted to 93% and the inhibition at 10 µM was 104%.
By melting point is commonly meant the temperature, or range, at which the solid turns liquid. In turn, `Cn1c(Oc2ccc(-n3c4ncccc4n4ccnc34)cc2)nc2ccccc21` [Example 9, 9-{4-[(1-Methyl-1H-benzimidazol-2-yl)oxy]phenyl}-9H-imidazo[1′,2′:1,2]imidazo[4,5-b]pyridine] had a melting point of 232 to 234 °C. In data set [1], the inhibition at 0.1 µM came out at 93% and the inhibition at 10 µM is 96%.
The matching figures for `CC(=O)Cn1c(Oc2ccc(-n3c4ncccc4n4ccnc34)cc2)nc2ccccc21` [Example 10, 1-{2-[4-(9H-imidazo[1′,2′:1,2]imidazo[4,5-b]pyridin-9-yl)phenoxy]-1H-benzimidazol-1-yl}propan-2-one]: 189 to 192 °C, 104% and 109%.
`CC(C)(O)Cn1c(Oc2ccc(-n3c4ncccc4n4ccnc34)cc2)nc2ccccc21` [Example 11, 1-{2-[4-(9H-imidazo[1′,2′:1,2]imidazo[4,5-b]pyridin-9-yl)phenoxy]-1H-benzimidazol-1-yl}-2-methylpropan-2-ol] had a melting point of 208 to 211 °C. Besides, in data set [1], the inhibition at 0.1 µM was 104% and the inhibition at 10 µM was determined as 106%.
As for `CCc1nn(-c2ccc(Oc3nc4cccnc4n3C)cc2)c2ncccc12` [Example 12, 3-Ethyl-1-{4-[(3-methyl-3H-imidazo[4,5-b]pyridin-2-yl)oxy]phenyl}-1H-pyrazolo[3,4-b]pyridine], in data set [1], the inhibition at 0.1 µM was found to be 99% and the inhibition at 10 µM stood at 101%.
For the compound `Cn1c(Oc2ccc(-n3c4ncccc4n4ccnc34)cc2)nc2cccnc21` [Example 13, 9-{4-[(3-Methyl-3H-imidazo[4,5-b]pyridin-2-yl)oxy]phenyl}-9H-imidazo[1′,2′:1,2]imidazo[4,5-b]pyridine], the melting point is 228 to 231 °C. Moreover, in data set [1], the inhibition at 0.1 µM stood at 97% and the inhibition at 10 µM came out at 106%.
`COCCn1c(Oc2ccc(-n3c4ncccc4n4ccnc34)cc2)nc2cccnc21` [Example 14, 9-(4-{[3-(2-Methoxyethyl)-3H-imidazo[4,5-b]pyridin-2-yl]oxy}phenyl)-9H-imidazo[1′,2′:1,2]imidazo[4,5-b]pyridine] gave a melting point of 178 to 182 °C. Moreover, in data set [1], the inhibition at 0.1 µM turned out to be 96% and the inhibition at 10 µM was determined as 105%. Moreover, the “suppression of hyperlocomotion induced by MK-801 (cumulative count 0-120 min)” value in data set [2] is reported as “significantly suppressed hyperlocomotion induced by MK-801”.
Compound `Cc1ccnc2c1n1ccnc1n2-c1ccc(Oc2nc3cccnc3n2C)cc1` [Example 15, 5-Methyl-9-{4-[(3-methyl-3H-imidazo[4,5-b]pyridin-2-yl)oxy]phenyl}-9H-imidazo[1′,2′:1,2]imidazo[4,5-b]pyridine] yielded a melting point of 236 to 239 °C. Besides, in data set [1], the inhibition at 0.1 µM stood at 97% and the inhibition at 10 µM came to 95%.
The matching figures for `COCCn1c(Oc2ccc(-n3c4nccc(C)c4n4ccnc34)cc2)nc2cccnc21` [Example 16, 9-(4-{[3-(2-Methoxyethyl)-3H-imidazo[4,5-b]pyridin-2-yl]oxy}phenyl)-5-methyl-9H-imidazo[1′,2′:1,2]imidazo[4,5-b]pyridine]: 190 to 192 °C, 98% and 105%.

Source of the values: patent US9029388B2, “Condensed heterocyclic compound” (Takeda Pharmaceutical Company Limited, priority 2011, dated 2015).
